This passage reports IC50 results from patent publication US20250042862A1, “AROMATIC HETEROCYCLIC COMPOUND AND APPLICATION THEREOF” (Shanghai Institute of Materia Medica, Chinese Academy of …, priority 2021, published 2025).

This experiment has as its target human recombinant LSD1 protein (Homo sapiens (Human), UniProt O60341). Kind of experiment: In vitro enzyme inhibition activity assay - LSD1 (Lance Ultra TR-FRET). The following applies: all compounds tested in the form of hydrochloride. The class given is biochemical. The protocol:
The purpose of this experiment was to test the in vitro inhibitory activity of the compounds against LSD1. The human recombinant LSD1 protein used in the experiment was purchased from Active Motif, and the enzyme level activity testing assay of LSD1 was performed using the Lance Ultra LSD1 Histone H3 Lysine 4 Demethylase Assay Kit (PerkinElmer). Tris-buffer (50 mMTris-HCl, 50 mMNaCl, 0.01% Tween-20, 1 mM DTT, 10 μM FAD, 10% glycerol, pH 9.0) was first prepared, and after preparation, the LSD1 fractions required for test were placed in this buffer and incubated for one hour at room temperature; the fractions included 4 μL of substrate solution ([…] Bio-H3K4me2, 1-24aa), 4 μL of enzyme solution (4 nM LSD1), and 2 μL of inhibitor in a 384-well microplate. After these operations, another 5 μL of assay mixture containing Eu-labeled H3K4me0 antibody and ULight-Streptavidin anti-biotin protein was added to the system, after which the fluorescence intensity of the components to be tested was detected by using Envision (PerkinElmer) in TR-FRET mode (excitation wavelength of 320 nm, emission wavelength of 620 nm). The test was repeated a total of three times to minimize errors. The final IC50 data were calculated by the software GraphPad Prism 5, and finally the sigmoidal dose-response (variable slope) method was used to obtain the fitted curve.
The LSD1 inhibitory activities of representative compounds of the present application as well as the positive control compound CC90011 were provided in Table 2. All compounds were tested in the form of hydrochloride.
Take `COC1=CC=C(c2c(-c3ccc(C#N)c(F)c3)nc(N3CCC(N)CC3)n(C)c2=O)CC1F` (stereo not shown) [CC90011, reference compound]: the IC50 is at most 30 nM. Regarding `Cc1noc(C)c1-c1ccc2nc(N3CCC(N)CC3)nc(-c3ccc(C#N)c(F)c3)c2c1` [Compound 3, 4-(2-(4-aminopiperidin-1-yl)-6-(3,5-dimethylisoxazol-4-yl)quinazolin-4-yl)-2-fluorobenzonitrile], the half-maximal inhibitory concentration (IC50) fell in the range of 30 to 300 nM. With `Cc1ccccc1-c1ccc2nc(N3CCC(N)CC3)nc(-c3ccc(C#N)c(F)c3)c2c1` [Compound 6, 4-(2-(4-aminopiperidin-1-yl)-6-(o-methylphenyl)quinazolin-4-yl)-2-fluorobenzonitrile], the IC50 is 30 to 300 nM. Turning to `Cc1cccc(-c2ccc3nc(N4CCC(N)CC4)nc(-c4ccc(C#N)c(F)c4)c3c2)c1` [Compound 8, 4-(2-(4-aminopiperidin-1-yl)-6-(m-methylphenyl)quinazolin-4-yl)-2-fluorobenzonitrile], the IC50 is 30 to 300 nM.

As for `Cn1ncc2cc(-c3ccc4nc(N5CCC(N)CC5)nc(-c5ccc(C#N)c(F)c5)c4c3)ccc21` [Compound 9, 4-(2-(4-aminopiperidin-1-yl)-6-(1-methyl-1H-indazol-5-yl)quinazolin-4-yl)-2-fluorobenzonitrile], the IC50 fell in the range of 30 to 300 nM. Turning to `Cn1ncc2c(-c3ccc4nc(N5CCC(N)CC5)nc(-c5ccc(C#N)c(F)c5)c4c3)cccc21` [Compound 10, 4-(2-(4-aminopiperidin-1-yl)-6-(1-methyl-1H-indazol-4-yl)quinazolin-4-yl)-2-fluorobenzonitrile], the IC50 fell in the range of 30 to 300 nM. For `Cn1ncc2cccc(-c3ccc4nc(N5CCC(N)CC5)nc(-c5ccc(C#N)c(F)c5)c4c3)c21` [Compound 11, 4-(2-(4-aminopiperidin-1-yl)-6-(1-methyl-1H-indazol-7-yl)quinazolin-4-yl)-2-fluorobenzonitrile], the IC50 was at most 30 nM. Regarding `Cc1cccc(C)c1-c1ccc2nc(N3CCC(N)CC3)nc(-c3ccc(C#N)c(F)c3)c2c1` [Compound 12, 4-(2-(4-Aminopiperidin-1-yl)-6-(2,6-dimethylphenyl)quinazolin-4-yl)-2-fluorobenzonitrile], the IC50 was at most 30 nM. Turning to `N#Cc1ccc(-c2nc(N3CCC(N)CC3)nc3ccc(-c4ccccc4OC(F)(F)F)cc23)cc1F` [Compound 13, 4-(2-(4-aminopiperidin-1-yl)-6-(2-(trifluoromethoxy)phenyl)quinazolin-4-yl)-2-fluorobenzonitrile], the IC50 was 30 to 300 nM. Then `N#Cc1ccc(-c2nc(N3CCC(N)CC3)nc3ccc(-c4ccccc4C(F)(F)F)cc23)cc1F` [Compound 14, 4-(2-(4-aminopiperidin-1-yl)-6-(2-(trifluoromethyl)phenyl)quinazolin-4-yl)-2-fluorobenzonitrile], with at most 30 nM. Take `N#Cc1ccc(-c2nc(N3CCC(N)CC3)nc3ccc(-c4ccccc4F)cc23)cc1F` [Compound 15, 4-(2-(4-aminopiperidin-1-yl)-6-(2-fluorophenyl)quinazolin-4-yl)-2-fluorobenzonitrile]: the concentration for half-maximal inhibition (IC50) fell in the range of 30 to 300 nM.

As to `N#Cc1ccc(-c2nc(N3CCC(N)CC3)nc3ccc(-c4ccccc4Cl)cc23)cc1F` [Compound 16, 4-(2-(4-aminopiperidin-1-yl)-6-(2-chlorophenyl)quinazolin-4-yl)-2-fluorobenzonitrile], the half-maximal inhibitory concentration (IC50) was at most 30 nM. Take `N#Cc1ccc(-c2nc(N3CCC(N)CC3)nc3ccc(-c4cccc(F)c4F)cc23)cc1F` [Compound 17, 4-(2-(4-aminopiperidin-1-yl)-6-(2,3-difluorophenyl)quinazolin-4-yl)-2-fluorobenzonitrile]: the 50% inhibitory concentration (IC50) is 30 to 300 nM. For the compound `N#Cc1ccc(-c2nc(N3CCC(N)CC3)nc3ccc(-c4c(Cl)cccc4Cl)cc23)cc1F` [Compound 20, 4-(2-(4-aminopiperidin-1-yl)-6-(2,6-dichlorophenyl)quinazolin-4-yl)-2-fluorobenzonitrile], the IC50 was at most 30 nM. Regarding `Cc1cccc(Cl)c1-c1ccc2nc(N3CCC(N)CC3)nc(-c3ccc(C#N)c(F)c3)c2c1` [Compound 21, 4-(2-(4-Aminopiperidin-1-yl)-6-(2-chloro-6-methylphenyl)quinazolin-4-yl)-2-fluorobenzonitrile], the IC50 was at most 30 nM. `N#Cc1ccc(-c2nc(N3CCC(N)CC3)nc3ccc(-c4c(F)cccc4Cl)cc23)cc1F` [Compound 22, 4-(2-(4-Aminopiperidin-1-yl)-6-(2-chloro-6-fluorophenyl)quinazolin-4-yl)-2-fluorobenzonitrile]: the half-maximal inhibitory concentration (IC50) is at most 30 nM. On to `N#Cc1ccc(-c2nc(N3CCC(N)CC3)nc3ccc(-c4cccc(F)c4C(F)(F)F)cc23)cc1F` [Compound 23, 4-(2-(4-Aminopiperidin-1-yl)-6-(3-fluoro-2-(trifluoromethyl)phenyl)quinazolin-4-yl)-2-fluorobenzonitrile], for which the IC50 was at most 30 nM. With `COc1ccc(-c2ccc3nc(N4CCC(N)CC4)nc(-c4ccc(C#N)nc4)c3c2)cc1F` [Compound 24, 5-(2-(4-aminopiperidin-1-yl)-6-(3-fluoro-4-methoxyphenyl)quinazolin-4-yl)pyridinecarbonitrile], the IC50 lay in the range of 30 to 300 nM.

In the case of `COc1ccc(-c2ccc3nc(N4CCC(N)CC4)nc(-c4ccc(C#N)cc4)c3c2)cc1F` [Compound 25, 4-(2-(4-aminopiperidin-1-yl)-6-(3-fluoro-4-methoxyphenyl)quinazolin-4-yl)benzonitrile], the IC50 is 30 to 300 nM.

Turning to `COc1ccc(-c2ccc3nc(NCC4CCNC4)nc(-c4ccc(C#N)c(F)c4)c3c2)cc1F` (stereo not shown) [Compound 29, 2-Fluoro-4-(6-(3-fluoro-4-methoxyphenyl)-2-((pyrrolidin-3-ylmethyl)amino)quinazolin-4-yl)benzonitrile], the IC50 lay within 30 to 300 nM. For `Cc1ccccc1-c1ccc2nc(NCC3CCNC3)nc(-c3ccc(C#N)c(F)c3)c2c1` (stereo not shown) [Compound 34, 2-Fluoro-4-(2-((pyrrolidin-3-ylmethyl)amino)-6-(o-methylphenyl)quinazolin-4-yl)benzonitrile], the half-inhibitory concentration (IC50) is at most 30 nM.

`COc1ccc(-c2ccc3nc(NC[C@H]4CCNC4)nc(-c4ccc(C#N)c(F)c4)c3c2)cc1F` [Compound 35, (S)-2-fluoro-4-(6-(3-fluoro-4-methoxyphenyl)-2-((pyrrolidin-3-ylmethyl)amino)quinazolin-4-yl)benzonitrile]: the concentration for half-maximal inhibition (IC50) is 30 to 300 nM. For `COc1ccc(-c2ccc3nc(NC[C@@H]4CCNC4)nc(-c4ccc(C#N)c(F)c4)c3c2)cc1F` [Compound 36, (R)-2-fluoro-4-(6-(3-fluoro-4-methoxyphenyl)-2-((pyrrolidin-3-ylmethyl)amino)quinazolin-4-yl)benzonitrile], the IC50 is 30 to 300 nM. As to `Cc1ccccc1-c1ccc2nc(NC[C@H]3CCNC3)nc(-c3ccc(C#N)c(F)c3)c2c1` [Compound 37, (S)-2-fluoro-4-(2-((pyrrolidin-3-ylmethyl)amino)-6-(o-methylphenyl)quinazolin-4-yl)benzonitrile], the concentration for half-maximal inhibition (IC50) lay in the range of 30 to 300 nM. Consider `Cc1ccccc1-c1ccc2nc(NC[C@@H]3CCNC3)nc(-c3ccc(C#N)c(F)c3)c2c1` [Compound 38, (R)-2-fluoro-4-(2-((pyrrolidin-3-ylmethyl)amino)-6-(o-methylphenyl)quinazolin-4-yl)benzonitrile], for which the IC50 lay within 30 to 300 nM. For the compound `N#Cc1ccc(-c2nc(NC[C@H]3CCNC3)nc3ccc(-c4ccccc4OC(F)(F)F)cc23)cc1F` [Compound 39, (S)-2-fluoro-4-(2-((pyrrolidin-3-ylmethyl)amino)-6-(2-(trifluoromethoxy)phenyl)quinazolin-4-yl)benzonitrile], the IC50 fell in the range of 30 to 300 nM. For `N#Cc1ccc(-c2nc(NC[C@H]3CCNC3)nc3ccc(-c4ccccc4F)cc23)cc1F` [Compound 41, (S)-2-fluoro-4-(2-((pyrrolidin-3-ylmethyl)amino)-6-(2-fluorophenyl)quinazolin-4-yl)-2-fluorobenzonitrile], the IC50 is 30 to 300 nM. For `N#Cc1ccc(-c2nc(NC[C@H]3CCNC3)nc3ccc(-c4cccc(F)c4F)cc23)cc1F` [Compound 43, (S)-2-fluoro-4-(2-((pyrrolidin-3-ylmethyl)amino)-6-(2,3-difluorophenyl)quinazolin-4-yl)-2-fluorobenzonitrile], the 50% inhibitory concentration (IC50) is 30 to 300 nM.

Take `Cc1cscc1-c1ccc2nc(NC[C@H]3CCNC3)nc(-c3ccc(C#N)c(F)c3)c2c1` [Compound 44, (S)-2-fluoro-4-(6-(4-methylthiophen-3-yl)-2-((pyrrolidin-3-ylmethyl)amino)quinazolin-4-yl)benzonitrile]: the IC50 is 30 to 300 nM. With `Cc1cccc(C)c1-c1ccc2nc(NC[C@H]3CCNC3)nc(-c3ccc(C#N)c(F)c3)c2c1` [Compound 45, (S)-4-(6-(2,6-dimethylphenyl)-2-((pyrrolidin-3-ylmethyl)amino)quinazolin-4-yl)-2-fluorobenzonitrile], the half-inhibitory concentration (IC50) is at most 30 nM. With `Cc1cc(C)c(-c2ccc3nc(NC[C@H]4CCNC4)nc(-c4ccc(C#N)c(F)c4)c3c2)c(C)c1` [Compound 46, (S)-4-(6-(2,4,6-trimethylphenyl)-2-((pyrrolidin-3-ylmethyl)amino)quinazolin-4-yl)-2-fluorobenzonitrile], the IC50 was at most 30 nM.

As a reminder, the IC50 is the concentration that gives 50% inhibition.
